Consider three molecules from publication PMC8316002, “Inhibition of Escherichia coli Lipoprotein Diacylglyceryl Transferase Is Insensitive to Resistance Caused by Deletion of Braun’s Lipoprotein” (Journal of Bacteriology, 2021).

A short description of one data set: Solubility (remark). As to conditions: prevented agar plate-based resistance selections. It is filed as physicochemical.
For a further data set, the system named is CFT073 imp4213 lpp^Ara. The data set can be described thus: Western blot of Lpp forms, arabinose-inducible Lpp. To be noted: Lpp induced with arabinose prior to treatment. It is filed as cell-based, E. coli. The text has this: Lpp expression was induced prior to treatment with G2824 or globomycin to minimize the level of preexisting triacylated Lpp.
(§1) Bacterial cell samples normalized for equivalent OD600 and resuspended in BugBuster lysis buffer (Fischer Scientific) with the addition of sample buffer (LI-COR), and proteins were separated by SDS-PAGE using 16% Tricine protein gels or NuPAGE 4% to 20% bis-Tris gels (Thermo Fisher Scientific), transferred to nitrocellulose membranes using the iBlot 2 dry blotting system (Invitrogen), and blocked using LI-COR blocking buffer for 30 min. Unless stated otherwise, loading buffer with reducing agents was added and samples were not boiled prior to SDS-PAGE. For the sucrose gradient centrifugation, samples were boiled prior to running the SDS-PAGE. Primary antibodies were used at a final concentration of 1 μg/ml with some exceptions: rabbit anti-Lpp polyclonal antibody (0.1 μg/ml), murine anti-Pal 6D7 antibody (0.5 μg/ml), rabbit anti-GroEL antibody (1:10,000 final dilution), and rabbit anti-OmpA antibody (1:50,000 final dilution). The secondary antibodies were all obtained from LI-COR and used as per manufacturer’s instructions. Images were collected using the Odyssey CLx imaging system (LI-COR) and analyzed by Image Studio Lite.

In the next data set the test system is BW25113 cells, lspA gRNA. Nature of the data set: CRISPRi knockdown sensitization, lspA gRNA. The data set is classed as cell-based, E. coli. As to conditions: 2 μM G2824, 0.05 μM globomycin or 0.016 μM ciprofloxacin; OD600 relative to untreated, versus scr or folA gRNA. An excerpt:
The two-plasmid bacterial CRISPRi system pdCas9-bacteria_GNE and PGNRNA-bacteria_GNE are based on the AddGene plasmids 44249 and 44251 ([73]), respectively. The plasmid was synthesized in smaller DNA fragments (500 bp to 3 kb) (IDT gBlocks) and assembled by Gibson assembly (NEB) according to the manufacturer’s protocols. Plasmids were confirmed by sequencing (ELIM Bio). gRNAs were designed to target the 5′ end of the gene on the nontemplate strand using Benchling CRISPR software ([74]). gRNAs were cloned into PGNRNA-bacteria using Gibson assembly (NEB) according to the manufacturer’s protocols and sequence confirmed (ELIM Bio).
Bacterial cultures were grown overnight on LB agar supplemented with carbenicillin (50 μg/ml) and chloramphenicol (12.5 μg/ml) to maintain both plasmids, pdCas9-bacteria and PGNRNA-bacteria with each gRNA as appropriate. Cells were scraped from the plate into fresh medium. The OD600 was measured, and the culture was subsequently diluted to an OD600 0.001 in the presence or absence of G2824, globomycin, or ciprofloxacin. Two hundred microliters was transferred to a 96-well plate (Corning) and monitored for growth by measuring the OD600 (EnVision multimode plate reader; PerkinElmer). All treatments were performed in triplicates. The specificity of CRISPRi downregulation was measured using reverse transcriptase quantitative PCR (RT-qPCR).

The test system of data set [1] is CFT073 imp4213. The data set can be described thus: Western blot of Lpp forms. As to conditions: 0.5× MIC, 30 min. The data set is classed as cell-based, E. coli. The method, then: as §1
(In general: A western blot detects proteins with antibodies after separation by electrophoresis.)

In data set [2] the test system is CFT073 imp4213. The data set can be described thus: SDS fractionation (PAP and non-PAP) of Lpp and Pal. The data set is classed as cell-based, E. coli. To be noted: 0.5× MIC, 60 min, PAP fraction. The protocol: Purification of PGN-associated proteins (PAP) was performed according to published methods ([17], [40], [41]) with some modifications. Briefly, bacteria were harvested in mid-exponential phase for treatment and then subjected to PAP extraction by resuspending the cell pellets from an OD (A600) of 10 in 6 ml of PAP extraction buffer containing 2% (wt/vol) SDS in 100 mM Tris-HCl (pH 8.0) with 100 mM NaCl, 10% glycerol, and cOmplete, mini, EDTA-free protease inhibitor cocktail (Sigma-Aldrich). After 60 min at RT, the extraction was subjected to centrifugation at 100,000 × g for 60 min at 22°C, and the pellet, containing PGN and associated proteins, was washed once with the same PAP extraction buffer with centrifugation at 100,000 × g for 30 min and resuspended in 200 μl of PAP extraction buffer (referred to as the SDS-insoluble on PAP fraction). The supernatant containing the SDS-soluble fraction was aliquoted and frozen (referred to as non-PAP fraction). Both fractions were treated with equal volumes of BugBuster buffer prior to the addition of sample buffer for Western immunoblotting as described above. It should be noted that the final PAP fractions were ∼30-fold more concentrated than the non-PAP fractions.

The test system of the next data set is CFT073 Δlgt. The data set can be described thus: MIC assay, CFT073 Δlgt, Lgt 4% Ara. The data set is classed as cell-based, E. coli. As to conditions: Escherichia coli. The method, then: Unless stated otherwise, E. coli cells were grown in Luria-Bertani (LB) medium (0.5% yeast extract, 1% tryptone, 0.5% NaCl) at 37°C. Where indicated, kanamycin (Kan) was added to culture media at a 50-μg/ml final concentration. MIC assays were performed based on Clinical and Laboratory Standards Institute (CLSI) guidelines. For in vitro growth curves, overnight cultures of WT CFT073, CFT073 Δlgt, and CFT073 Δlgt complemented with lgt from E. coli (lgt^Ec) or P. aeruginosa (lgt^Pa) were grown to mid-exponential phase (optical density at 600 nm [OD600] of 0.6) and then diluted to an OD600 of 0.1 to initiate growth curves. At various times, culture aliquots were diluted and plated in dilutions on LB+Kan agar, and CFU were enumerated in duplicates. Growth of MG1655 inducible deletion strains was measured by culturing in the presence of 2-fold dilutions of arabinose (starting arabinose concentrations for CFT073 and MG1655 inducible deletion strains were 4% and 0.8%, respectively). While […] was sufficient for WT growth of MG1655 Δlgt, 4% arabinose was used for CFT073 Δlgt based on comparing its growth to that of WT CFT073 as measured by CFU. OD600 growth measurements were performed using an EnVision 2101 multilabel reader plate reader (PerkinElmer) linked with Echo liquid handler (Labcyte). For time-kill experiments, bacteria were harvested in mid-exponential phase and treated with 12.5 μM G2824, 3.2 μM globomycin, and 1.6 μM vancomycin. CFU were enumerated at various times posttreatment. Bacterial culture medium containing 2% arabinose was used to induce lpp or lppΔK expression from pBad24 plasmids. Bacterial viability at different time points during the treatment was measured by enumerating CFU. Serum killing assays were carried out as previously described ([17]).

Where a SMILES comes first, the peptide text is derived from it. Bridges are numbered along the chain shown (N, C = ends). [ ]: non-standard residue; d: D form. Bip = N[C@@H](Cc1ccc(-c2ccccc2)cc1)C(=O)O; NMeF = CN[C@@H](Cc1ccccc1)C(=O)O

On to `CN1C(=O)[C@H](Cc2ccc(-c3ccccc3)cc2)NC(=O)CNC(=O)[C@H](CC(=O)O)NC(=O)[C@@H](Cc2ccccc2)NC(=O)CSC[C@@H](C(=O)NCC(=O)N[C@@H](CCCCN)C(=O)N[C@@H](CCCCN)C(N)=O)NC(=O)[C@H](CCCNC(=N)N)NC(=O)[C@H](CO)NC(=O)[C@H](Cc2ccc(-c3ccccc3)cc2)NC(=O)[C@@H]1Cc1ccccc1` [G2824] ({CH2CO}-[dF]DG[Bip][NMeF][Bip]SRCGKK-NH2; thioether N-9), for which the solubility result in “Solubility (remark)” is “solubility issues”.
For `CCCCCC[C@H]1OC(=O)CNC(=O)[C@H]([C@H](C)O)NC(=O)[C@H](CO)NC(=O)[C@H]([C@H](C)CC)NC(=O)[C@H](CC(C)C)N(C)C(=O)[C@@H]1C` [Globomycin], the “level of mature Lpp” value with CFT073 imp4213 lpp^Ara was “decreased mature Lpp”. In addition, the “sensitization by decreased lspA expression” value with BW25113 cells, lspA gRNA is “enhanced growth inhibition”. Also, the “accumulation of Lpp forms” value in the data set with CFT073 imp4213 [1] was “accumulation of DGPLP and other PGN-linked Lpp forms”. Also, the “levels of PGN-linked Lpp and Pal” value with CFT073 imp4213 [2] was “accumulation of PGN-linked DGPLP (§) and other PGN-linked Lpp forms (†)”.
Consider `CN[C@H](CC(C)C)C(=O)N[C@H]1C(=O)N[C@@H](CC(N)=O)C(=O)N[C@H]2C(=O)N[C@H]3C(=O)N[C@H](C(=O)N[C@H](C(=O)O)c4cc(O)cc(O)c4-c4cc3ccc4O)[C@H](O)c3ccc(c(Cl)c3)Oc3cc2cc(c3O[C@@H]2O[C@H](CO)[C@@H](O)[C@H](O)[C@H]2O[C@H]2C[C@](C)(N)[C@H](O)[C@H](C)O2)Oc2ccc(cc2Cl)[C@H]1O` [Vancomycin], for which the MIC against CFT073 Δlgt was > 100 µM.

Usually MIC stands for the lowest concentration found to suppress growth. Lower therefore signals a more susceptible organism.
